# Non-standard residues stand in square brackets, D forms with d. No end group written: not given here. Aib = CC(C)(N)C(=O)O
# Tests used:
# ADNP^+/− male mice = test: Morris water maze test; format: in vivo, mouse
# Experimental: (§1) The heterozygous ADNP mice were generated as before (Pinhasov et al., Brain Res. Dev. Brain Res. 2003, 144:83-90; and Vulih-Shultzman et al., J Pharmacol Exp Ther. 2007, 323(2):438-49). To avoid any variability in results associated with the estrous cycle in females, only ADNP^+/− male mice are use for behavioral experiments.
# (§2) Iso-NAP (NAXaaVSIXaaQ; SEQ ID NO:1) was dissolved in a vehicle solution, in which each milliliter included 7.5 mg of NaCl, 1.7 mg of citric acid monohydrate, 3 mg of disodium phosphate dihydrate, and 0.2 mg of benzalkonium chloride solution (50%). Iso-NAP or vehicle solution (DD) was administered to mice handheld in a semi-supine position with nostrils facing the investigator. A pipette tip was used to administer 2.5 μl/each nostril. The mouse was handheld until the solution is entirely absorbed. Nasal Iso-NAP application was performed daily, once a day, for 2 weeks for the Morris water maze test. In the 2nd week, Iso-NAP was applied 1 h before the daily test (see below), which was conducted for 5 consecutive days. In the passive avoidance test, all mice were treated for a total of 7 days, on the 7th day of treatment the test began. Iso-NAP was applied 1 h before the test.
# The mouse is placed in a pool of water that is colored opaque with powdered non-fat milk, where it must swim to a hidden escape platform. The position of the platform is altered between days but remains constant within each day. Because it is in opaque water, the mouse cannot see the platform, and cannot rely on scent to find the escape route. As the mouse becomes more familiar with the task, it is able to find the platform more quickly.
# Pool diameter—140 cm, Platform—clear plaxiglass, 12 cm in diameter, 2 cm below the surface of the water, Water temperature—22-23° C., Room temperature—26-28° C.
# Mice are treated with Iso-NAP/vehicle and then habituated for 1 hour in the experimental room. […] The time requires to reach the platform in each trial is measured. […]
# [1] = test system: ADNP heterozygous male mice; test: Passive avoidance test; format: in vivo, mouse
# Experimental: as §1, §2
# The passive avoidance task is a fear-motivated avoidance task based on the mouse conflict between avoiding the light stimulus and approaching the dark chamber in which a painful shock is given. The mouse learns to refrain from stepping through a door to an apparently safer but previously punished dark compartment. The latency to refrain from crossing into the punished compartment serves as an index of the ability to avoid, and allows memory to be assessed (Johns Hopkins University, Department of Psychological and Brain Sciences, website: nbc.jhu.edu/protocols/PassiveAvoidanceProtocol.aspx). […]
# The experiment is carried out for three days. […] The time to enter the dark compartment is recorded. […] The door is opened after 30 seconds, and the time it takes the mouse to enter the dark chamber is recorded. […] After 30 seconds (T0), the door is opened and the latency to enter the dark chamber is recorded. […]
substance,measurement,setting,value
"NAXaaVSIXaaQ (NA[Aib]VSI[Aib]Q) [Alpha-aminoisobutyric NAP, both prolines of NAP substituted]",Morris water maze performance (working memory) vs vehicle controls,"ADNP^+/− male mice; 2 μg/5 μl/mouse/day intranasal, third day of testing, P<0.05",performed better than controls
same,Morris water maze performance (working memory) vs vehicle controls,"ADNP^+/− male mice; 30 μg/5 μl/mouse/day intranasal, day 2 P<0.05, day 3 P<0.07, listed as Iso-NAP",better than control on testing days 2 and 3
same,Morris water maze performance (working memory) vs vehicle controls,"ADNP^+/− male mice; 30 μg/5 μl/mouse/day intranasal, day 2 P<0.05, day 3 P<0.07, listed as IsoNAP",seems to affect the spatial memory
same,latency to enter the dark room at T0 and T30 vs T-trial,"[1]; 2 μg/mice intranasal, P<0.05",entered the dark room significantly slower than on the T-trial
same,effect on learning and memory (conclusion),"[1]; 2 μg/mice, conclusion from Morris water maze and passive avoidance tests",seems to affect positively learning and memory
same,latency to enter the dark room,[1]; 30 μg/mice intranasal,entered the dark room faster than the NAP2 group

# From patent US8586548B2, “NAP alpha-aminoisobutyric acid analog with neuroprotective activity” (Ramot at Tel-Aviv University, Ltd., priority 2009, dated 2013)
